Reference: US20260364186A1, “Chemical Conjugates, Compositions, and Methods of Preparation and Use Thereof” (Transfection Holdings Limited, priority 2022, published 2026)
Where “and” joins values, the source holds several entries; their conditions need not be identical. Identical values can stand only once.

How the values were obtained:
Assay type in all cases: cell-based, human
[1] = test system: NZM11 (BRAF V600E mutant metastatic melanoma) cells; assay: Sulforhodamine B (SRB) assay of viability / proliferation, auranofin conjugates (Example 8)
Experimental: FIG. 8: Effect of 136 and 137 (auranofin conjugates) on viability of NZM11 melanoma cells. Cells were incubated with 136 and 137 at 10 μM final concentration and kept at 37 °C for 48 hours. Pantothenic acid (PA), CJ-15,801, and biotin were tested at 200 μM final concentration. […] Two batches of auranofin were tested at 10 μM final concentration.
FIG. 9: The viability data from FIG. 8 was normalised to the treatment plate and DMSO control and plotted as a percentage of cell growth. Individual data points represent technical replicates. Curve indicates non-linear regression slope, which allows determination of IC50 values.
Materials and methods: NZM11 cells were cultured in MEMα media with an initial count of 1020 cells/μL. The cells were then diluted to get 25 cells per μL and 200 μL of this suspension (5000 cells per well), dispensed into 96 well plates and left to settle for 24 hours. 10 mM stock solutions of 136, 137, and auranofin were diluted with 1% FBS MEMα media to give 10 nM, 30 nM, 100 nM, 300 nM, 1 μM, 3 μM, 10 μM, 30 μM and 100 μM solutions. After 24 hours the media was removed from the 96 well plates. To individual wells 200 μL of each dilution were dispensed in triplicate for three groups (136, 137, and auranofin): 1% FBS MEMα media only (DMSO control), 10 nM, 30 nM, 100 nM, 300 nM, 1 μM, 3 μM, 10 μM, 30 μM and 100 μM. The cells were incubated at 37 °C, 5% 02 and 5% CO2 for 48 hours.
In order to test the potency of 136 and 137, the IC50 values were calculated for these auranofin conjugates. For analysis of the treatment plate (Tz) a SRB assay was utilised. For this assay, 50 μL of 50% (w/v) ice-cold trichloroacetic acid (TCA) was added to each well. To achieve this, 5 g of TCA was made up to 10 mL with milliQ H2O. This was cooled on ice. Incubation was carried out for 1 hour at 4 °C to fix cells. TCA and media were removed from cells. Five milliQ washes were carried out and the plate was left to air dry. Next, 50 μL of 0.4% SRB solution (prepared in 1% acetic acid) was added to each well and incubated for 10 minutes at room temperature. The SRB solution was removed and five milliQ washes were carried out. Then, 100 μL of 10 mM Tris solution was added to each well, and the dye was solubilised. Absorbance at 515 nm was read on plate reader. Data was normalized to Tz plate, as per NCI60 screening method (https://dtp.cancer.gov/discovery_development/nci-60/methodology.htm).

[2] = test system: NZM11 (BRAF V600E) melanoma cells; assay: Time course of uptake by FACS (Example 5); conditions: 200 nM
Experimental: FIG. 5A: Time course of uptake for 124, 125, 131, 132 conjugate compounds. Tests were performed using 200 nM each conjugate and 5, 30, or 60 minute incubation with melanoma cell line NZM11 (BRAF V600E mutant metastatic melanoma). Mean fluorescent intensities (MFI), n=300 mean±SD. The cells were sorted by FACS.
FIG. 5B: Time course of uptake for 124 and 3-azido BODIPY FL. Tests were performed using 200 nM each compound and 1 or 3 hour incubation with melanoma cell line NZM11 (BRAF V600E mutant metastatic melanoma). Mean fluorescent intensities (MFI). n=2000-3000 mean±SD. The cells were sorted by FACS.
Materials and methods: NZM11 cells were suspended at […] dispensed into 96 well plates and left to settle for 48 hours. 10 μL of 10 mM stock solutions in DMSO from the conjugates coupled to BODIPY were diluted with HBSS to afford 400 nM solution. Then, 400 nM compounds and DMSO solutions were diluted 1:1 with MEMα media to afford 200 nM solutions. After 48 hours the media was removed from the 96 well plates and 200 μL of 200 nM conjugates solutions dispensed to each well (in duplicate) and incubated for 5 minutes, 30 minutes and 60 minutes at 37 °C (for the first test) or 60 minutes and 3 hours (for the second test). After indicated incubation time, the media was removed and cells washed with PBS. 100 μL of TrypLE trypsin (ThermoFisher Scientific) were added to each well and incubated for 6.5 minutes at 37 °C after which, 100 μL of MEMα media were added and samples were sorted through FACS biosort. FACS results output represented the mean of the fluorescence intensities (in arbitrary units) measured for cells sorted in every sample. Uptake rate was calculated by the equation: Uptake rate=(MFI2−MFI1)/(T2−T1)
whereby: MFI=mean fluorescent intensities; T=time (at which time the sample was taken); Uptake rate units: fluorescence intensities units per minute.

[3] = test system: NZM40 (NRAS Q16H) melanoma cells; assay: FACS uptake of BODIPY FL conjugates, 200 nM, 5 min (Example 2)
Experimental: FIG. 2. Conjugate compounds coupled to BODIPY FL were tested for uptake using 200 nM each conjugate and 5 minute incubation with melanoma cell line NZM11 (BRAF V600E mutant metastatic melanoma), melanoma cell line NZM40 (NRAS Q16H mutant metastatic melanoma) and melanoma cell line NZM9 (BRAF and NRAS wildtype metastatic melanoma). Mean fluorescent intensities (MFI). 2,000 cells (NZM11), 1,000 cells (NZM40) and 500-1,000 cells (NZM9). Cells were sorted by FACS. Bars represent mean±SD. Results were from a single experiment done in triplicate.
NZM40 is an adherent cell line which was originally derived from a metastatic melanoma from a patient, in 2004. This human metastatic melanoma is identified with code CBA-1381 from Cell bank Australia. […] Ras is a superfamily of proteins implicated in cell growth, survival and differentiation. NRAS (neuroblastoma rat sarcoma) was the first oncogene recognized in melanoma and mutations in NRAS account for 20% of all melanomas. NRAS mutations primarily occur at position 61 and involve amino acid change from glutamine (Q) to arginine (R), lysine (K), leucine (L) or histidine (H). These mutations block NRAS into a GTP-bound state damaging its GTPase activity (FIG. 1). Patients are usually older (>55 years) with previous UV exposure. See Garcia-Alverez et al., 2021.
For screening, NZM11, NZM40 and NZM9 cells were suspended at […] dispensed into 96 well plates and left to settle for 48 hours. Then, 10 μL of 10 mM stock solutions in DMSO for the conjugates were diluted with HBSS to afford 400 nM solution. Next, 400 nM compounds and DMSO solutions were diluted 1:1 with MEMα media to afford 200 nM solutions. After 48 hours the media was removed from the 96 well plates and 200 μL of 200 nM conjugates solutions dispensed to each well (in triplicate) and incubated for 5 minutes at 37 °C. After 5 minutes, the media was removed and cells washed with PBS. Then, 100 μL of TrypLE trypsin (ThermoFisher Scientific) were added to each well and incubated for 5 minutes at 37 °C after which, 100 μL of MEMα media were added and samples were sorted through FACS biosort. The FACS results output were represented as the mean of the fluorescence intensities (in arbitrary units) measured for cells sorted in every sample.

Jurkat cells = assay: FACS uptake of BODIPY FL conjugates in Jurkat cells (Example 3); conditions: 200 nM
Experimental: FIG. 3B: Conjugate compounds coupled to BODIPY FL were tested for uptake using 200 nM each conjugate and 5 minute incubation with immortalized T lymphocyte cell line, Jurkat cells. Mean fluorescent intensities (MFI). 1,000 cells sorted by FACS. Bars represent mean±SD. Results represent a single experiment done in duplicate.
Materials and methods: Jurkat cells have been previously shown to be defective in the expression of two lipid phosphatases, PTEN (phosphatase and tensin homologue) and SHIP (SH2-domain-containing inositol polyphosphate 5′ phosphatase). The biological implications of SHIP deficiency in T cells remain under evaluation, but the loss of PTEN leads to activation of the phosphatidylinositol 3-kinase (PI3K)-signalling pathway. See Abraham and Weiss, 2004. This activation of PI3K protein is also on NZM40 melanoma cell line, and represents a key mutation for its sustained proliferation. See Silva et al., 2017. For these experiments, Jurkat cells were diluted on RPMI media (supplemented with 10% FBS+1% penicillin-streptomycin) to afford 400 cells/μL. 2 μL of 100 μM stock solutions in DMSO from 138 and pantothenic acid/pantothenic acid derivatives coupled to BODIPY were diluted with 998 μL of RPMI media (supplemented with 10% FBS+1% penicillin-streptomycin) to afford 200 nM solution. 100,000 cells were dispensed to Eppendorf tubes, centrifuged for 1.5 min at 5000 rcf and the supernatant was removed. The cells then were incubated with 500 μL of solutions at 200 nM for 4.5 min and 37 °C. After the incubation time, cells were centrifuged for 1.5 minutes at 5000 rcf. Supernatant was removed and cell pellet re-suspended in 200 μL fresh RPMI media, transferred to 96 well-plate and run on FACS machine, approximately 1,000 cells analysed.

[4] = test system: HT29 (colorectal cancer cell line); assay: FACS uptake of BODIPY FL conjugates (Example 4); conditions: 200 nM, 5 min
Experimental: FIG. 4A: Conjugate compounds coupled to BODIPY FL were tested for uptake using 200 nM each conjugate and 5 minute incubation with colorectal cancer cell line HT29. Mean fluorescent intensities (MFI). 1,000 cells were sorted by FACS.
Materials and methods: The HT-29 line was originally isolated from a primary tumour in 1964 from a person. This cell line is positive for expression of N-ras and overexpression of p53 antigen. The human colon adenocarcinoma cell line HT29, is not only used to study the biology of human colon cancers, but it is receiving special interest in studies focused on food digestion and bioavailability due to the ability to express characteristics of mature intestinal cells. The application of this cell line to transport studies of drugs and food compounds is illustrated, especially when the effect of the mucus layer is considered or used as co-culture in combination with Caco-2 cells. These cells have shown a high rate of glucose consumption and therefore, they require high glucose concentration in the medium. Verhoeck et al., 2015.
For these experiments, HT-29 or MEF cells were diluted on αMEM media (supplemented with 10% FBS+1% penicillin-streptomycin) to give a 250 cells/μL suspension of which 200 μL were aliquoted into each well of a 96 well plate followed by incubation for 24 hours. Next, 2 μL of 100 μM stock solutions in DMSO from the conjugates coupled to BODIPY were diluted with 998 μL of αMEM media to give a 200 nM solution. After 24 hour incubation, media was removed and 200 μL of 138 and pantothenic acid/pantothenic acid derivatives coupled to BODIPY 200 nM solutions were added and cells were incubated for 5 minutes at 37 °C. After 5 minutes, the compounds and DMSO solutions were removed and cells were washed with PBS. Then, 100 μL of TrypLE trypsin were added to each well and incubated for 5 minutes at 37 °C. After this time, 100 μL of DMEM media were added to the wells and samples were sorted through FACS biosort. The studies were completed in duplicated wells.

## (R,E)-((4-(3-(2,4-dihydroxy-3,3-dimethylbutanamido)acrylamido)phenyl)thio)(triethyl-phosphaneyl) Gold (I) [Compound 137]
[1]; 10 μM, 48 hours
  reduction on viability, as compared to auranofin itself: more than 95%
[1]; 138 20 times more concentrated (200 μM)
  effect of CJ-15,801/138 on activity: not affected
[1]; NZM11, 48 hours
  IC50 relative to auranofin: five times higher than auranofin
[1]; NZM11, 48 hours, SRB assay
  IC50: 2940 nM and ~2800 nM
[1]; vitamins 20 times more concentrated (200 μM)
  effect of biotin and pantothenic acid on activity: not affected

## CC1=CC(C)=[N+]2C1=Cc1ccc(CCCN=[N+]=[N-])n1[B-]2(F)F [3-azido BODIPY FL, 3-Azido[4,4-difluoro-5,7-dimethyl-4-bora-3a,4a-diaza-s-indacene-3-yl]propane, reference compound]
[2]; 1 hour
  times lower intensities than 124: 6 times
[2]; 3 hours
  times lower intensities than 124: 6 times
[2]; NZM11, time course
  uptake / intensities, in words: low uptake rate

## CC1=CC(C)=[N+]2C1=Cc1ccc(CCCn3cc(CCNC(=O)/C=C\NC(=O)[C@@H]4OC(C)(C)OCC4(C)C)nn3)n1[B-]2(F)F [Compound 129, (Z)—N-((((3-[4,4-Difluoro-5,7-dimethyl-4-bora-3a,4a-diaza-s-indacene-3-yl]propyl)-1H-1,2,3-triazol-4-yl)ethylamino)-3-oxoprop-1-enyl)-2,2,5,5-tetramethyl-1,3-dioxane-4-carboxamide]
[3]
  uptake (fluorescence intensities): showed selectivity
Jurkat cells
  uptake / targeting: showed targeting
[4]
  uptake (fluorescent intensities): higher uptakes than their diol counterparts

## CC1=CC(C)=[N+]2C1=Cc1ccc(CCCn3cc(CCNC(=O)/C=C\NC(=O)[C@@H](O)C(C)(C)CO)nn3)n1[B-]2(F)F [Compound 130, (Z)—N-((((3-[4,4-Difluoro-5,7-dimethyl-4-bora-3a,4a-diaza-s-indacene-3-yl]propyl)-1H-1,2,3-triazol-4-yl)ethylamino)-3-oxoprop-1-enyl)-2,4-dihydroxy-3,3-dimethylbutanamide]
[3]
  uptake (fluorescence intensities): showed selectivity
